Results taken from ChEMBL document CHEMBL1143803, “Syntheses, characterization and in vitro antiamoebic activity of new Pd(II) complexes with 1-N-substituted thiocarbamoyl-3,5-diphenyl-2-pyrazoline derivatives” (Eur J Med Chem, 2007).

Test system: Entamoeba histolytica
Assay: Antiamoebic activity against Entamoeba histolytica HM-1:IMSS after 72 hrs
Assay type: functional, organism-based

IC50 [nM]	Structure (SMILES)
4790	Cc1ccccc1NC(=S)N1N=C(c2ccccc2)CC1c1ccccc1 (stereo not drawn)
11000	S=C(NCc1ccccc1Cl)N1N=C(c2ccccc2)CC1c1ccccc1 (stereo not drawn)
1800	S=C(N1CCN(c2ccccc2)CC1)N1N=C(c2ccccc2)CC1c1ccccc1 (stereo not drawn)
1600	S=C(N1CCC(Cc2ccccc2)CC1)N1N=C(c2ccccc2)CC1c1ccccc1 (stereo not drawn)
10700	Cc1cccc(NC(=S)N2N=C(c3ccccc3)CC2c2ccccc2)c1 (stereo not drawn)
2800	CN(Cc1ccccc1)C(=S)N1N=C(c2ccccc2)CC1c1ccccc1 (stereo not drawn)
450	S=C(N1CCCc2ccccc21)N1N=C(c2ccccc2)CC1c1ccccc1 (stereo not drawn)
380	Cc1ccc(NC(=S)N2N=C(c3ccccc3)CC2c2ccccc2)cc1 (stereo not drawn)
